Reference: patent US20210145964A1, “STROMA-TARGETING TREATMENT FOR PATIENTS WITH ELEVATED ADAM12 LEVELS” (Academisch Medisch Centrum, priority 2019, published 2021)

Test system: metastatic adenocarcinoma of the pancreas
Test: MPACT phase III trial, overall survival by plasma ADAM12 group
Conditions: poorest-outcome group: ADAM12 became detectable or increased at cycle 2
Method: In the MPACT trial cohort, collection of plasma samples for biomarker development was optional and separate written consent was obtained for sample collection and biomarker analysis. […] All patients provided informed consent. […] Patients were randomized 1:1 (stratified by performance status, presence of liver metastases, and region) to receive nab-paclitaxel 125 mg/m^2 plus gemcitabine 1,000 mg/m^2 on days 1, 8, and 15 every 28 days or gemcitabine alone 1,000 mg/m^2 on days 1, 8, 15, 22, 29, 36, and 43 in 56 days (cycle 1) and then on days 1, 8, and 15 every 28 days (cycle≥2). Treatment continued until disease progression or unacceptable toxicity.
MPACT trial blood samples were collected in EDTA tubes to chelate calcium and prevent blood clotting, and storage at −80° C. until analysis. To allow the analysis of these plasma samples using the ADAM12 DuoSet ELISA, recalcification was required. […]
For the MPACT cohort, baseline ADAM12 values were categorized into undetectable (0) and detectable (>0). The fold change of ADAM12 at cycle 2, day 1 (C2D1) from baseline (cycle 1, day 1; C1D1) was calculated by the results at C2D1 divided by the value at C1D1. […] All eligible samples were measured and no power calculation was performed. Overall survival was analyzed using Kaplan-Meier method and log-rank test. […]

Work on `Nc1ccn([C@@H]2O[C@H](CO)[C@@H](O)C2(F)F)c(=O)n1` [gemcitabine] yielded an overall survival of 6.9 months.
